Measured values: patent US20130123386A1, “HINDERED PRIMARY CHLORINATED AMINE IN A LATEX FORMULATION” (ROHM AND HAAS COMPANY, priority 2011, published 2013)

How the values were obtained:
[1] = Heat aging of amine/latex binder preparation at 50° C. for 14 days, concentration by GC; assay type: physicochemical; details: latex binder
Description: A 20.0-g dispersion of N-chloro-2,4,4-trimethylpentan-2-amine, 18% sodium lauryl sulfate, and water (C1-TOA, 0.47 g; SLS, 1.29 g; H2O, 18.24.g) with a particle size in the range of 100 to 850 nm was added to a butyl acrylate/methyl methacrylate/methacrylic acid latex binder (180 g; 50/49/1 percentages by weight) stabilized by SLS (1 weight percent) and Disponil FES 32 emulsifier (1 weight percent). The Cl-TOA/binder preparation was heat aged at 50° C. for 14 days. The concentration of Cl-TOA prior to the heat aging step was 2350 ppm (14 mM). The concentration of Cl-TOA after the heat-aging step was measured by GC to be ˜160 ppm based on the volume of the binder.
The procedures were carried out substantially as described for Example 1 except that, after heat-aging, a diluted sample of KATHON™ LX Microbicide Concentrate (A Trademark of The Dow Chemical Company or Its Affiliates) was mixed in with the binder/Cl-TOA preparation by shaking the samples at 200 rpm for 20 min, giving a final dosage of ˜5 ppm active. The concentration of Cl-TOA after the heat-aging step was measured by GC to be ˜160 ppm based on the volume of the binder.
The procedure of Example 2 was repeated except that the constituents of the added dispersion were Cl-TOA (0.19 g), SLS (0.52 g), and water (19.29 g). The concentration of Cl-TOA after the heat-aging step was estimated to be ˜65 ppm based on the volume of the binder.
(TOA, 0.38 g; SLS, 1.06 g; H2O, 18.56 g) with a particle size in the range of 100 to 850 nm was added to a butyl acrylate/methyl methacrylate/methacrylic acid latex binder (180 g; 50/49/1 percentages by weight) stabilized by SLS (1 weight percent) and Disponil FES 32 emulsifier (1 weight percent). The TOA/binder preparation was heat aged at 50° C. for 14 days. The concentration of TOA before heat aging was 1900 ppm (14 mM), and GC measurements indicated no change in TOA concentration as a result of heat aging. […]

[2] = test system: standard industrial inoculum; assay: Preservative efficacy (challenge) testing of latex binder samples, growth rating of streaked TSA plates; assay type: cell-based
Description: The samples prepared in accordance with Examples 1-4 and Comparative Example 1 were subjected to preservative efficacy testing in accordance with the following procedure:
A 1-g aliquot was removed from each sample and submitted for biocide analysis by a standard HPLC procedure to check the amount of isothiazolone microbicide dosed. The samples were then dosed with the standard industrial inoculum at a level of 0.1 mL/10 g.
All bacteria and yeast were stored at −70° C. to −80° C. in broth and glycerol (15%) prior to inoculum preparation. Molds were maintained on potato dextrose agar (PDA) plates at 2-5° C. The bacteria and yeast cultures were thawed and 0.1-mL aliquots of each were transferred into separate 10-mL aliquots of tryptic soy broth (TSB). These cultures were incubated at 30° C. for 18-24 h, with shaking at 150-200 rpm.
A volume of 10 mL of sterile phosphate buffer was measured out. The two mold strains were added by wetting sterile swabs in phosphate buffer, or water, and then rolling the swabs over the molds, covering an area of approximately 1 in^2 on each plate. The mold-covered swabs were then immersed in the 10 mL of phosphate buffer and agitated to suspend the spores. A volume of 0.1 mL of each bacterial culture, and a volume of 1 mL of each yeast culture, was then added to the mold mixture. The inoculum was blended by vortexing briefly. The organisms used in the inoculum and their corresponding American Type Culture Collection numbers (ATCC #) are shown in Table 1.
Samples were inverted several times to mix in the microorganisms. This inoculation challenged each test sample with 10^6-10^7 colony forming units/mL latex. Using a 10-μL sterile loop, latex samples were streaked onto tryptic soy agar (TSA) plates. This procedure was carried at t=0 and at several other time points during the first ˜5 h of the experiment to obtain speed-of-kill data. Additional time points were taken at t=1, 2 and 7 days. Between time points, all samples were stored at 30° C. In addition, all streaked TSA plates were incubated at 30° C. […]

Concentration of Cl-TOA after the heat-aging step (estimated) ([1]; 940 ppm (6 mM) before heat aging, estimated, based on the volume of the binder (Example 3)) [ppm]	Concentration of Cl-TOA after the heat-aging step ([1]; 2350 ppm (14 mM) before heat aging, measured by GC, based on the volume of the binder (Examples 1 and 2)) [ppm]	Change in TOA concentration as a result of heat aging ([1]; 1900 ppm (14 mM) before heat aging, GC (Example 4))	SMILES	Efficacy as a quick-kill preservative ([2]; alone or in combination with the KATHON LX Microbicide, heat-aged latex binder)	Biocidal activity ([2]; TOA itself)	Effect as an adjuvant for the biocide ([2]; with KATHON LX, compared to the microbiocide alone (Comp. Ex. 1))
~65	~160	–	CC(C)(C)CC(C)(C)NCl [Cl-TOA, N-chloro-2,4,4-trimethylpentan-2-amine]	effective	–	–
–	–	no change	CC(C)(C)CC(C)(C)N [TOA, 2,4,4-trimethylpentan-2-amine]	–	little or no biocidal activity	effective as an adjuvant
